Test results reported in doi:10.1101/2021.04.08.439011v1 (biorxiv, 2021).

Columns and labels:
Conditions in all cases: 0.1 µM; binder
[1] = target: JAK3(JH1domain-catalytic) (Homo sapiens, UniProt P52333)
[2] = target: RSK4(Kin.Dom.2-C-terminal) (Homo sapiens, UniProt Q9UK32)
[3] = target: GCN2(Kin.Dom.2,S808G) (Homo sapiens, UniProt Q9P2K8, S808G)
[4] = target: JAK1(JH1domain-catalytic) (Homo sapiens, UniProt P23458)
[5] = target: JAK1(JH2domain-pseudokinase) (Homo sapiens, UniProt P23458)
[6] = target: ACVR2A (Homo sapiens, UniProt P27037)
[7] = target: CSNK2A2 (Homo sapiens, UniProt P19784)
[8] = target: DRAK2 (Homo sapiens, UniProt O94768)
[9] = target: EGFR(L858R,T790M) (Homo sapiens, UniProt P00533, L858R/T790M)
[10] = target: EPHA2 (Homo sapiens, UniProt P29317)
[11] = target: EPHA6 (Homo sapiens, UniProt Q9UF33)
[12] = target: EPHB6 (Homo sapiens, UniProt O15197)
[13] = target: FGFR2 (Homo sapiens, UniProt P21802)
[14] = target: FLT3(ITD) (Homo sapiens, UniProt P36888)
[15] = target: LOK (Homo sapiens, UniProt O94804)
[16] = target: LZK (Homo sapiens, UniProt O43283)
[17] = target: MAP3K4 (Homo sapiens, UniProt Q9Y6R4)
[18] = target: MYO3A (Homo sapiens, UniProt Q8NEV4)
[19] = target: PDPK1 (Homo sapiens, UniProt O15530)
[20] = target: PFTAIRE2 (Homo sapiens, UniProt Q96Q40)
[21] = target: PIK3CA(E542K) (Homo sapiens, UniProt P42336, E542K)
[22] = target: RET(M918T) (Homo sapiens, UniProt P07949, M918T)
[23] = target: RIPK1 (Homo sapiens, UniProt Q13546)
[24] = target: TIE2 (Homo sapiens, UniProt Q02763)
[25] = target: TNIK (Homo sapiens, UniProt Q9UKE5)
[26] = target: YES (Homo sapiens, UniProt P07947)
[27] = target: RPS6KA4(Kin.Dom.2-C-terminal) (Homo sapiens, UniProt O75676)
[28] = target: PKNB (M. tuberculosis) (Mycobacterium tuberculosis, UniProt P9WI81)
[29] = target: PFCDPK1 (P. falciparum) (Plasmodium falciparum, UniProt P62344)
[30] = target: RPS6KA4(Kin.Dom.1-N-terminal) (Homo sapiens, UniProt O75676)

FLT3(ITD), sequence (P36888 564-993, change not shown): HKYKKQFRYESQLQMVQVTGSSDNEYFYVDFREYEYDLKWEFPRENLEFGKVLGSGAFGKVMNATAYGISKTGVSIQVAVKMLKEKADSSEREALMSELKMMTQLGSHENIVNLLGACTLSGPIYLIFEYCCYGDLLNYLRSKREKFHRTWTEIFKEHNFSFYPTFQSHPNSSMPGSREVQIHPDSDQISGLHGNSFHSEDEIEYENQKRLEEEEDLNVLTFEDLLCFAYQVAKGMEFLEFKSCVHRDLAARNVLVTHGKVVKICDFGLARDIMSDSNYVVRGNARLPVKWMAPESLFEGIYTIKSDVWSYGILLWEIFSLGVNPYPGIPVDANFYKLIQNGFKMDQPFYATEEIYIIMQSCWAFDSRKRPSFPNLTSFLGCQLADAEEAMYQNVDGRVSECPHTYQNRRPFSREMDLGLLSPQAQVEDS
MYO3A, sequence (Q8NEV4 whole entry): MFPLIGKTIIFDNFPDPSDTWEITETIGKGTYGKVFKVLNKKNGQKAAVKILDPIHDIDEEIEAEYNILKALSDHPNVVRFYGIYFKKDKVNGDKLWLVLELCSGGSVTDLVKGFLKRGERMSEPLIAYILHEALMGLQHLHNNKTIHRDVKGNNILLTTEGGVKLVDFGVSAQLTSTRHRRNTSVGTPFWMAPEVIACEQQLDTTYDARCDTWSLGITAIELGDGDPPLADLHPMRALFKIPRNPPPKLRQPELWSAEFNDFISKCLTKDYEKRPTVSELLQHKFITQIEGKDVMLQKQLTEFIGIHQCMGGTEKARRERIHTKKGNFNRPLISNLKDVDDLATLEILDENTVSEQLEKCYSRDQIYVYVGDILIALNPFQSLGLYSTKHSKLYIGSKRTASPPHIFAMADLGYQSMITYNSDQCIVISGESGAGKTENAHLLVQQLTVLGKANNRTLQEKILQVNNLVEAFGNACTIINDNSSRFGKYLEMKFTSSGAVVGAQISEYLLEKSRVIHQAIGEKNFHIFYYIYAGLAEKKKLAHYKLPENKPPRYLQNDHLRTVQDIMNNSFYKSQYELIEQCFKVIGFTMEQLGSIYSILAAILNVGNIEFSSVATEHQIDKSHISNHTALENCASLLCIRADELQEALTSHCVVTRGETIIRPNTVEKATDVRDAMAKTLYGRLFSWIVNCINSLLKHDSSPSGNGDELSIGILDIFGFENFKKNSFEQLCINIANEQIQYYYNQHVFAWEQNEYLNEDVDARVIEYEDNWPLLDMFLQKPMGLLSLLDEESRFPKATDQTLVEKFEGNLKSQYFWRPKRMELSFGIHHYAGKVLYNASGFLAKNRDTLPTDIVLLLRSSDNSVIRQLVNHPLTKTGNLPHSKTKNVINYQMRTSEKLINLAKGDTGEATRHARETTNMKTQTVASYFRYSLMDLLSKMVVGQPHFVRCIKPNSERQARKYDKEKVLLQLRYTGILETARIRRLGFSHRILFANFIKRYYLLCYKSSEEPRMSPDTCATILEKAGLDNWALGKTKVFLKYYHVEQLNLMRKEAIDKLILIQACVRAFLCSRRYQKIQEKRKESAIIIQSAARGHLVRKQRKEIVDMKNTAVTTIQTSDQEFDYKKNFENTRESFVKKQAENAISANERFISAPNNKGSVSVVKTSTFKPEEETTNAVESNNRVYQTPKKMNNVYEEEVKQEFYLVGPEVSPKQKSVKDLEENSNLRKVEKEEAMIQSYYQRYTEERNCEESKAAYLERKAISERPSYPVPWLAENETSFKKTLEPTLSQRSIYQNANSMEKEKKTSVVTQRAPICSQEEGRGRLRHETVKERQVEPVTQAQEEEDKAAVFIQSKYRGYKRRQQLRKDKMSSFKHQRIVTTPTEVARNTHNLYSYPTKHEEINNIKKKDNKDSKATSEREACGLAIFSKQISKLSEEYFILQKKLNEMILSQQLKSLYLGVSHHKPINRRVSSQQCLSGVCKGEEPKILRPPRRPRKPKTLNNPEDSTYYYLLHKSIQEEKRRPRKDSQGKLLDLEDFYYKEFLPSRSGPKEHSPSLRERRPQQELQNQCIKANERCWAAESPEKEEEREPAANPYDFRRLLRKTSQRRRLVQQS
LZK, sequence (O43283 whole entry): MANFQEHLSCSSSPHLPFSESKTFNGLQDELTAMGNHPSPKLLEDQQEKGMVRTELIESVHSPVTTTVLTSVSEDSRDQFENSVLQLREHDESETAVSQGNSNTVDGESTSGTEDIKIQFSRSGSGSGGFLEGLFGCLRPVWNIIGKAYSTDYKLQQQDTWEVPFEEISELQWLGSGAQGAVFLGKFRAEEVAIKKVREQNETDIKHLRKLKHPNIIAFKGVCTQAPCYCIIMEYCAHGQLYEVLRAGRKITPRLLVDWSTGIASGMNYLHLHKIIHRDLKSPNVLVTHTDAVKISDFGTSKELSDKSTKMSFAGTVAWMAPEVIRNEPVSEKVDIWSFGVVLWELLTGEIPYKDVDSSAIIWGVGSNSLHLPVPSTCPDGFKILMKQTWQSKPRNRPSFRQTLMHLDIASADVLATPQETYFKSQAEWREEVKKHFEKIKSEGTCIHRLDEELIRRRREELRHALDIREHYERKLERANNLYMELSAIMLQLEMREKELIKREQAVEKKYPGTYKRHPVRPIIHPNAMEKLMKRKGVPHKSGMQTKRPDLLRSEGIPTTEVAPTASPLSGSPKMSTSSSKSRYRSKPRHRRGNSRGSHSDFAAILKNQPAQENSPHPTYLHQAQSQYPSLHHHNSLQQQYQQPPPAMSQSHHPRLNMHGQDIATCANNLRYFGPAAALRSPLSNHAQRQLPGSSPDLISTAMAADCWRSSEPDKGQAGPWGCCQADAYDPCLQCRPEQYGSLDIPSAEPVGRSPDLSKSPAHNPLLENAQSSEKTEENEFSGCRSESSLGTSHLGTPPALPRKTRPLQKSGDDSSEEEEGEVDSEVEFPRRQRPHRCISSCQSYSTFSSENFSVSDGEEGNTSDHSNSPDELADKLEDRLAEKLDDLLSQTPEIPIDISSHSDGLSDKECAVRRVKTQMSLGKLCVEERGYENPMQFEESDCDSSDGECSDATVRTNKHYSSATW
PDPK1, sequence (O15530 whole entry): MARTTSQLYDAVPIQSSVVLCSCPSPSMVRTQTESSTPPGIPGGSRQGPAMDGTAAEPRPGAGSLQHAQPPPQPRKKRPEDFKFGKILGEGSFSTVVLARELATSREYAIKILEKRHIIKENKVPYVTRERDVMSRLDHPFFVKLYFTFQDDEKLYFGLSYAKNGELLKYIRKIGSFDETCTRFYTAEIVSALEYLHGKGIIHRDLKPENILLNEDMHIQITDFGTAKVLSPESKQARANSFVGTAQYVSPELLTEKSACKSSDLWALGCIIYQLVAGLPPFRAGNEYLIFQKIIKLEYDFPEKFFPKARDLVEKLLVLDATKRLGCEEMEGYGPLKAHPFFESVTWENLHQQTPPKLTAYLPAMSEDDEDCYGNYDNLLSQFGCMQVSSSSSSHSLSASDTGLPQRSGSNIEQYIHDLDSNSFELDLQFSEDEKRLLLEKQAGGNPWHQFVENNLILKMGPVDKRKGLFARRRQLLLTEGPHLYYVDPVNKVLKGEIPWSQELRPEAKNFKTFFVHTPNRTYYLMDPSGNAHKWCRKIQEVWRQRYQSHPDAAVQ
CSNK2A2, sequence (P19784 whole entry): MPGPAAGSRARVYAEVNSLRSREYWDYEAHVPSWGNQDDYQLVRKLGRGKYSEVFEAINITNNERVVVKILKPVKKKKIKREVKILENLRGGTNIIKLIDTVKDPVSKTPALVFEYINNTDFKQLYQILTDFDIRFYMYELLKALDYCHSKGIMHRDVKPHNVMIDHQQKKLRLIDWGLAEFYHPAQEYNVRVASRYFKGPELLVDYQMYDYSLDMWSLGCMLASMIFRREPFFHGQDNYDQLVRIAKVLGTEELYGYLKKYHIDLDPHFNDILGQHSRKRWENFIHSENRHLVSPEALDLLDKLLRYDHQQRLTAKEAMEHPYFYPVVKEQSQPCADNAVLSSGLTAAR
PKNB (M. tuberculosis), sequence (P9WI81 whole entry): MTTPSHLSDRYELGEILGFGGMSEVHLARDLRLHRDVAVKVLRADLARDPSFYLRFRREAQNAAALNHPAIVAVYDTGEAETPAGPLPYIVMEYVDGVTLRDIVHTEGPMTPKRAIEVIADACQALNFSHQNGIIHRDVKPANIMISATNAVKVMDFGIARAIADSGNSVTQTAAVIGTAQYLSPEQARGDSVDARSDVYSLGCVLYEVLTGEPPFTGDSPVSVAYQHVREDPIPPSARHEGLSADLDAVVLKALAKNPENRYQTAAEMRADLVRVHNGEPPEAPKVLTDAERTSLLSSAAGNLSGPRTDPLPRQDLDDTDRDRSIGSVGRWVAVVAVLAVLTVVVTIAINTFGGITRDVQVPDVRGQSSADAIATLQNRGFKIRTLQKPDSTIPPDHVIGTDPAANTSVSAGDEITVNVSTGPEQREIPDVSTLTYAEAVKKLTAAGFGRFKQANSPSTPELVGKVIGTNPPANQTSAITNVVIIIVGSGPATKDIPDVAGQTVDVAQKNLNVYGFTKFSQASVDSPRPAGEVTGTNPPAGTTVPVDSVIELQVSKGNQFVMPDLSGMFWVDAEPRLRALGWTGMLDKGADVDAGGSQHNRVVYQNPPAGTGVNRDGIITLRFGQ
PFTAIRE2, sequence (Q96Q40 whole entry): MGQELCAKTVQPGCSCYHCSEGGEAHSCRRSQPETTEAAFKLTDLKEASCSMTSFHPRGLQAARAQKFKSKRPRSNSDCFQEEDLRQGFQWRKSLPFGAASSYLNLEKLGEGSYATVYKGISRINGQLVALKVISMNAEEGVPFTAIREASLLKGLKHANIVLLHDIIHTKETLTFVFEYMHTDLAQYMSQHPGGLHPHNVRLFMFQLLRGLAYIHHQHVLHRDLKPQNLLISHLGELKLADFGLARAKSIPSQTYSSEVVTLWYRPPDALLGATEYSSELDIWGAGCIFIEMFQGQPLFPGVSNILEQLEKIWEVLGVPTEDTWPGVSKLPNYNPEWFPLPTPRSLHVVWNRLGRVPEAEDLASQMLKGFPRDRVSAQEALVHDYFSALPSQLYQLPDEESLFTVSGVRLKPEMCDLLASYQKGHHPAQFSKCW

In the case of `CNc1ncc2cc(-c3ccc(-c4cccc(C)n4)cc3Cl)c(=O)n(C[C@H]3OC[C@H](N)CO3)c2n1` [compound 6, G-5555], the “Percent Control” value [1] is reported as 100%, the “Percent Control” value [2] is reported as 100% and the “Percent Control” value [3] is reported as 76%. For the same compound, the “Percent Control” value [4] was 100%, the “Percent Control” value [5] was 92% and the “Percent Control” value [6] was 100%. For the same compound, the “Percent Control” value [7] was 96%, the “Percent Control” value [8] was 66% and the “Percent Control” value [9] was 100%. The “Percent Control” value [10] was 100%, the “Percent Control” value [11] was 100% and the “Percent Control” value [12] was 61%. For the same compound, the “Percent Control” value [13] was 100%, the “Percent Control” value [14] was 100% and the “Percent Control” value [15] was 37%. For the same compound, the “Percent Control” value [16] was 100%, the “Percent Control” value [17] was 84% and the “Percent Control” value [18] was 100%. For the same compound, the “Percent Control” value [19] was 99%, the “Percent Control” value [20] was 100% and the “Percent Control” value [21] was 89%. The “Percent Control” value [22] was 100%, the “Percent Control” value [23] was 100% and the “Percent Control” value [24] was 87%. For the same compound, the “Percent Control” value [25] was 100%, the “Percent Control” value [26] was 100% and the “Percent Control” value [27] was 100%. For the same compound, the “Percent Control” value [28] was 100%, the “Percent Control” value [29] was 9.1% and the “Percent Control” value [30] was 100%.
